Experimental data taken from ChEMBL document CHEMBL4196131 (J Med Chem, 2018).

Assays:
Estrogen receptor beta [1] = molecular target: T1, Estrogen receptor beta (Homo sapiens, UniProt Q92731); experiment: Antagonist activity at human ERbeta expressed in HEK293T cells after 24 hrs by ERE-based dual luciferase reporter gene assay relative to E2; assay type: cell-based; design: concentration or dose not given beside the values
Estrogen receptor beta [2] = molecular target: T1, Estrogen receptor beta; experiment: Agonist activity at human ERbeta expressed in HEK293T cells after 24 hrs by ERE-based dual luciferase reporter gene assay relative to E2; assay type: cell-based
MCF7 = experiment: cells; settings: Homo sapiens, MCF7, 72 h
Mus musculus = organism: Mus musculus; experiment: Inhibition of NFkappaB in mouse RAW 264.7 cells assessed as reduction in LPS induced NO production at 10 uM after 24 hrs by Griess assay relative to control; assay type: cell-based
[3] = molecular target: T2, Estrogen receptor (Homo sapiens) (UniProt P03372); experiment: Antagonist activity at human ERalpha expressed in HEK293T cells after 24 hrs by ERE-based dual luciferase reporter gene assay relative to E2; assay type: cell-based
T2 sequence (whole entry): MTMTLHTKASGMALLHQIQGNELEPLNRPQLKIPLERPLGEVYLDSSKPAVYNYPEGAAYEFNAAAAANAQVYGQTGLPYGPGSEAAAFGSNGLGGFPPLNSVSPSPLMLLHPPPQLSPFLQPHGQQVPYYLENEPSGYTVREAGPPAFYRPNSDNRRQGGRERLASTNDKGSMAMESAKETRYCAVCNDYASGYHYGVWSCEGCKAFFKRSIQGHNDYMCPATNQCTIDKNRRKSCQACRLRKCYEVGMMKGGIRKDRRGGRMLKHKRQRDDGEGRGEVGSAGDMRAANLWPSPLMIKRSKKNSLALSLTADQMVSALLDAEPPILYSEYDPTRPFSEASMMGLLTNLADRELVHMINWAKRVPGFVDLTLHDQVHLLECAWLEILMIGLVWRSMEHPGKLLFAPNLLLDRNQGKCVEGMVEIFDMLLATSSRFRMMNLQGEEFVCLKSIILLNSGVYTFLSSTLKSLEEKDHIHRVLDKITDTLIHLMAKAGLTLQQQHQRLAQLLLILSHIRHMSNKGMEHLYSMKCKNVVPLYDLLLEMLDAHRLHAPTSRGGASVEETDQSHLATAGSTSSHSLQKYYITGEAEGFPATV

[4] = molecular target: T2, Estrogen receptor (Homo sapiens); experiment: Agonist activity at human ERalpha expressed in HEK293T cells after 24 hrs by ERE-based dual luciferase reporter gene assay relative to E2; assay type: cell-based
[5] = Inhibition of NFkappaB in mouse RAW 264.7 cells assessed as reduction in LPS induced NO production after 24 hrs by Griess assay; assay type: cell-based; settings: RAW264.7, 24 h
Estrogen receptor = molecular target: T3, Estrogen receptor (Homo sapiens, UniProt P03372); experiment: Antagonist activity at human ERalpha expressed in HEK293T cells after 24 hrs by ERE-based dual luciferase reporter gene assay; assay type: cell-based
T3 sequence (P03372 whole entry): T2 sequence (whole entry)

Estrogen receptor beta [6] = molecular target: T1, Estrogen receptor beta; experiment: Agonist activity at human ERbeta expressed in HEK293T cells after 24 hrs by ERE-based dual luciferase reporter gene assay; assay type: cell-based
Estrogen receptor beta [7] = molecular target: T1, Estrogen receptor beta; experiment: Antagonist activity at human ERbeta expressed in HEK293T cells after 24 hrs by ERE-based dual luciferase reporter gene assay; assay type: cell-based

T1 sequence (Q92731 whole entry): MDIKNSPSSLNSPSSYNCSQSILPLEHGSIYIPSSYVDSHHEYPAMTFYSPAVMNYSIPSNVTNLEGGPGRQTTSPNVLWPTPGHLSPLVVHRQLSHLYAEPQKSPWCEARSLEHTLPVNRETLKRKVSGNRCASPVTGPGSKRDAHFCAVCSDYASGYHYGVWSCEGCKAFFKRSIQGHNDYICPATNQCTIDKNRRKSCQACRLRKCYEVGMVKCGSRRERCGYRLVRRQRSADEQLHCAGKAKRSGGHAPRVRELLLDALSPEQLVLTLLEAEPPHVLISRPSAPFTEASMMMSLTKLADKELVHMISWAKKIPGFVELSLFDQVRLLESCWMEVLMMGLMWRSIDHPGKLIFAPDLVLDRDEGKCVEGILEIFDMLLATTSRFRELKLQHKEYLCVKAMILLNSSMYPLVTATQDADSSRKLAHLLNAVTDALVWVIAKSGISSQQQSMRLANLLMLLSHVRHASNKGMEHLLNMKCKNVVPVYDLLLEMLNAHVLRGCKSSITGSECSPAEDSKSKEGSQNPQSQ

| Structure (SMILES) | Efficacy (Estrogen receptor beta [1]) | Efficacy (Estrogen receptor beta [2]) | IC50 (MCF7) | inhibition (Mus musculus) | Efficacy [3] | Efficacy [4] | IC50 [5] | IC50 (Estrogen receptor) | EC50 (Estrogen receptor beta [6]) | IC50 (Estrogen receptor beta [7]) |
| --- | --- | --- | --- | --- | --- | --- | --- | --- | --- | --- |
| O=S(=O)(Oc1ccccc1)C1CC2OC1C(c1ccc(/C=C/c3ccccc3)cc1)=C2c1ccc(O)cc1 (stereo not drawn) | 83% | 48% | 25200 nM | 40.4% | 34% | 13% | 9700 nM | 1030 nM | 2780 nM |  |
| O=S(=O)(Oc1ccccc1)C1CC2OC1C(c1ccc(/C=C/c3cc(O)cc(O)c3)cc1)=C2c1ccc(O)cc1 (stereo not drawn) | 76% | 37% | 20100 nM | 70.9% | 4% | 29% | 6020 nM | 428 nM | 658 nM |  |
| O=S(=O)(Oc1ccc(/C=C/c2ccccc2)cc1)C1CC2OC1C(c1ccc(O)cc1)=C2c1ccc(O)cc1 (stereo not drawn) | 74% | 25% | 8300 nM | 72.4% | 54% | 6% | 2230 nM | 149 nM | 31 nM |  |
| COc1cc(/C=C/c2ccc(OS(=O)(=O)[C@@H]3C[C@@H]4O[C@H]3C(c3ccc(O)cc3)=C4c3ccc(O)cc3)cc2)cc(OC)c1 |  |  | 2310 nM |  | 11% |  | 300 nM | 3 nM |  |  |
| O=S(=O)(Oc1ccc(F)cc1)C1CC2OC1C(c1ccc(/C=C/c3cc(O)cc(O)c3)cc1)=C2c1ccc(O)cc1 (stereo not drawn) | 98% | 45% | 13100 nM | 71.9% | 7% | 16% | 8880 nM | 5 nM | 276 nM |  |
| COc1cccc(OS(=O)(=O)C2CC3OC2C(c2ccc(/C=C/c4cc(O)cc(O)c4)cc2)=C3c2ccc(O)cc2)c1 (stereo not drawn) | 102% | 52% | 10400 nM | 42.3% | 36% | 55% | 11100 nM | 48 nM | 3 nM |  |
| O=S(=O)(Oc1cccc(Cl)c1)C1CC2OC1C(c1ccc(/C=C/c3cc(O)cc(O)c3)cc1)=C2c1ccc(O)cc1 (stereo not drawn) | 91% | 60% | 12900 nM | 62.1% | 4% | 16% | 2140 nM | 932 nM | 2 nM |  |
| Cc1cccc(OS(=O)(=O)C2CC3OC2C(c2ccc(/C=C/c4cc(O)cc(O)c4)cc2)=C3c2ccc(O)cc2)c1 (stereo not drawn) | 46% | -3% | 16300 nM | 68.4% | 2% | 22% | 2410 nM | 947 nM |  | 3110 nM |
| O=S(=O)(Oc1cccc(C(F)(F)F)c1)C1CC2OC1C(c1ccc(/C=C/c3cc(O)cc(O)c3)cc1)=C2c1ccc(O)cc1 (stereo not drawn) | 31% | 29% | 11500 nM | 41.6% | -10% | -7% | 14600 nM | 72 nM | 1730 nM | 42 nM |
| O=S(=O)(Oc1ccc(Cl)cc1)C1CC2OC1C(c1ccc(/C=C/c3cc(O)cc(O)c3)cc1)=C2c1ccc(O)cc1 (stereo not drawn) | 33% | 7% | 17900 nM | 62.1% | 11% | -5% | 6500 nM | 62 nM |  | 1020 nM |
| O=S(=O)(Oc1ccc(Br)cc1)C1CC2OC1C(c1ccc(/C=C/c3cc(O)cc(O)c3)cc1)=C2c1ccc(O)cc1 (stereo not drawn) | 43% | 10% | 16900 nM | 22% | 15% | -9% | 16500 nM | 61 nM |  | 2530 nM |
| O=S(=O)(Oc1ccc(O)cc1)C1CC2OC1C(c1ccc(/C=C/c3cc(O)cc(O)c3)cc1)=C2c1ccc(O)cc1 (stereo not drawn) | 88% | 51% | 14100 nM | 41% | 8% | 12% |  | 54 nM | 355 nM |  |
| CC/C(=C(\c1ccc(O)cc1)c1ccc(OCCN(C)C)cc1)c1ccccc1 [AFIMOXIFENE] |  |  | 9500 nM | 21.5% |  |  | > 100000 nM |  |  |  |
| COc1cc(/C=C/c2cccc(OS(=O)(=O)C3CC4OC3C(c3ccc(O)cc3)=C4c3ccc(O)cc3)c2)cc(OC)c1 (stereo not drawn) | 86% | 47% | 11500 nM | 55.1% | 47% | 13% | 6370 nM | 738 nM |  |  |
| COc1cc(/C=C/c2ccc(C3=C(c4ccc(O)cc4)C4CC(S(=O)(=O)Oc5cccc(OC)c5)C3O4)cc2)cc(OC)c1 (stereo not drawn) | 39% | 37% | 77100 nM | 60.1% | 32% | -2% | 1260 nM |  | 941 nM | 646 nM |
| O=S(=O)(Oc1cccc2ccccc12)C1CC2OC1C(c1ccc(/C=C/c3cc(O)cc(O)c3)cc1)=C2c1ccc(O)cc1 (stereo not drawn) | 71% | 65% | 11000 nM | 44.4% | -4% | -10% | 3290 nM | 49 nM | 222 nM |  |
| O=S(=O)(Oc1cccc(O)c1)C1CC2OC1C(c1ccc(/C=C/c3cc(O)cc(O)c3)cc1)=C2c1ccc(O)cc1 (stereo not drawn) | 106% | 17% | 23000 nM | 12.3% | 17% | 5% | > 100000 nM | 6020 nM |  |  |
| COc1cc(/C=C/c2ccc(OS(=O)(=O)[C@H]3C[C@H]4O[C@@H]3C(c3ccc(O)cc3)=C4c3ccc(O)cc3)cc2)cc(OC)c1 |  |  | 18000 nM |  | 72% |  | 480 nM | 27 nM |  |  |
| O=S(=O)(Oc1ccc(/C=C/c2cc(O)cc(O)c2)cc1)C1CC2OC1C(c1ccc(O)cc1)=C2c1ccc(O)cc1 (stereo not drawn) | 99% | 51% | 10500 nM | 81% | 7% | -9% | 930 nM | 19 nM | 194 nM |  |
